“Also recorded” adds a separate entry of the source. Values belong to the molecule of their own block, whether it stands above or below them. Where no end group is shown, it is not given here.
Tests used:
H460 tumors = experiment: TUNEL staining of tumors; assay type: in vivo, BALB/c nude mice; human H460 tumor; details: camptothecin 10 mg/kg single dose
Description: (§1) Female nude mice (BALB/c nude; body weight, 20±3 g; n = 5) were housed in a specific pathogen-free environment at 22±2°C and 55±5% relative humidity with light. Tumors were generated by subcutaneously injecting H460 cells (5×10^6 cells) into the right shoulder of 6-wk-old female BALB/c nude mice and allowing them to grow for 3 weeks (size of 0.5 to 0.7 cm). For in vivo analysis of tumor targeting, the tumor-bearing mice were either treated or not treated with a single dose of camptothecin (10 mg/kg) 24 hrs prior to intravenous injection of Cy7.5-labeled PSP1, Cy7.5-annexin V or Cy7.5-labeled control peptide into the tail vein under inhalational anesthesia (1% (w/v) isoflurane in 2 L oxygen).
At the 6 hr time point, the animals were euthanized with CO2, and tumor tissues were removed from a subset of animals. The tumor tissues were then fixed by incubating with 4% paraformaldehyde (PFA) overnight, followed by freezing for cryosectioning and immunohistochemical studies under a fluorescence microscope (Zeiss, Oberkochen, Germany). Apoptosis in the tumor tissues was assessed by […] terminal deoxynucleotidyl transferase-mediated dUTP nick-end labelling (TUNEL) staining in accordance with the manufacturer’s instructions (Chemicon Int., Temecula, CA, USA).

H460 cells = experiment: apoptosis induction in H460 cells, annexin V/PI staining; details: etoposide 50 μM
apoptotic H460 cells [1] = experiment: FACS binding to apoptotic H460 cells; assay type: cell-based, human; details: FITC-labeled; for binding of PSP1 mutants to apoptotic H460 cells (FACS): 10 μg/ml, vs PSP1, 4°C, n = 3
Description: (§2) The human lung cancer cell H460, which was obtained from the American Type Culture Collection (ATCC), was maintained in RPMI-1640 media supplemented with 10% heat-inactivated fetal bovine serum (FBS) and penicillin G/streptomycin at 37°C in a humidified atmosphere of 95% air and 5% CO2.
(§3) To induce apoptosis of lung tumor cells (H460), the cells (5×10^6 cell) were grown overnight and then treated with etoposide (50 μM) (Sigma) in serum-free media for 22 hrs, followed by washing with phosphate-buffered saline (PBS) and binding buffer (10 mM Hepes (pH 7.4), 150 mM NaCl, and 2 mM CaCl2).
(§4) Control peptide (grey); FITC-NSSSVDK.

normal H460 cells = experiment: FACS binding to normal H460 cells; assay type: cell-based, human; details: FITC-labeled, 10 μg/ml; n = 3
Description: as §2, §3, §4

PS liposomes = experiment: SPR binding to PS liposomes
Source text: To compare the kinetics of annexin V and PSP1 peptide binding to PS liposomes, SPR spectroscopy was employed (Reichert Inc, NY, USA). PC and PS liposomes (0.8:0.2 PC:PS) were generated as previously described and were homogenously purified using a liposome mini-extruder with a 100 nm membrane filter, based on the manufacturer’s protocol (Avanti Polar Lipids). […] Briefly, phytosphingosine was immobilized by activating the carboxymethyl groups on dextran-coated chips (Reichert Life Sciences) through a reaction with N-hydroxysuccinimide (Sigma-Aldrich), followed by covalent bonding of the ligands to the chip surface via amide linkages and blocking of excess activated carboxyls with ethanolamine. The purified PS or PC liposomes were captured on the phytosphingosine layer at a flow rate of 5 μl/min in liposome immobilization buffer (10 mM Tris-HCl (pH 8.0), 100 mM NaCl, and 2 mM CaCl2). To use the PC-immobilized surface as a control, the injected PS or PC liposome volume was adjusted to an immobilization level of approximately 4000±200 RU. Different concentrations of the PSP1 peptide (0.313 to 5 μM) and annexin V (3.13 to 100 nM) in running buffer (10 mM Tris-HCl (pH 8.0), 100 mM NaCl, 2 mM CaCl2, and 62.5 μg/ml BSA) were allowed to flow over the surfaces bound to the immobilized liposomes for 3 min at a rate of 30 μl/min. The sensor surface was regenerated after each association and dissociation cycle by injecting 10 mM EDTA for 20 s, followed by 50 mM NaOH for 10 s. The interaction of the ligand and the analyte was analyzed using Scrubber 2 Biologic software (http://www.biologic.com.au/). The binding kinetics was assessed by determining the association (kon), dissociation (koff), and equilibrium (KD) constants.
The in vitro binding affinity of PSP1 and annexin V for PS was further examined using SPR analysis (Fig. 2). […] We immobilized PS liposomes on the surface of an SPR chip, applied a series of different concentrations of PSP1 or annexin V, and examined the binding kinetics. PS-specific binding was determined by subtracting binding responses to a PC liposome-coated surface from those obtained using a PS liposome-coated […] surface.
Fig 2 In vitro SPR analysis of PSP1 and annexin V binding to PS liposomes. (A) The indicated concentrations of PSP1 were injected onto the liposome-immobilized surface. Responses (RU) from the PC liposome-coated surface (reference) were subtracted from those from the PS:PC (2:8) liposome surface to monitor PS-specific binding. The equilibration binding constant (KD) and the association (Kon) and dissociation (Koff) rate constants were estimated using the Scrubber program. (B) Plots of the RU values of annexin V at the indicated concentrations.

apoptotic H460 cells [2] = experiment: confocal microscopy of binding to apoptotic H460 cells; assay type: cell-based, human; details: FITC-labeled, 20 μg/ml, apoptotic H460 (etoposide 50 μM), 4°C, 1 hr
untreated cancer cells = experiment: binding to normal (untreated) cancer cells, microscopy; assay type: cell-based, human; details: 40 μg/ml; data not shown
Description: (A) Apoptotic H460 cells in a chamber slide were incubated with 20 μg of PSP1, control peptide, or annexin V for 30 min. The cells were washed and fixed with 4% PFA before staining with DAPI. The confocal images were taken by laser confocal microscopy. (B) Normal H460 cells were subjected to incubation with the same amount of peptide or annexin V.

[3] = system: apoptotic tumor cells in H460 tumor-bearing mice; experiment: in vivo fluorescence imaging of tumors after apoptosis induction; design: species or system BALB/c nude mice; human H460 tumor; details: for in vivo tumor homing: i.v., camptothecin-treated H460 tumor-bearing mice, n = 5, imaging 10 min to 12 h, PSP1 10 μg/200 μl, annexin V and control peptide 100 μg/200 μl
Description: as §1
In vivo fluorescence images were taken at different time intervals after peptide injection (10 min, 1 h, 3 h, 6 h, and 12 h) using an eXplore Optix system (ART Advanced Research Technologies Inc., Montreal, Canada), which has excitation/emission wavelengths of 778 nm/805 nm. The obtained images were processed using eXplore Optix OptiView Software and normalized based on the baseline fluorescence, assessed for each mouse prior to peptide injection.
Fig 4 In vivo imaging of tumors after apoptosis induction. (A) Cy7.5-labelled PSP1peptide, control peptide, or annexin V was systematically injected into the tail vein of tumor-bearing nude mice treated with camptothecin 24 hrs before injection. The same amount of annexin V was also injected into non-camptothecin-treated tumor-bearing mice as a control. The homing of the peptides was examined after the indicated times using an optical imaging system. The white dotted circles indicate the tumors. (B) Histological examination of tumor tissues after homing of PSP1 and annexin V, performed under a fluorescence microscope. Tumor cell apoptosis was observed by TUNEL staining.

[4] = system: apoptotic cells in tumor tissue; experiment: histological examination of tumor tissues after in vivo homing; design: species or system BALB/c nude mice; human H460 tumor; details: Cy7.5-labeled, i.v., tumors removed at 6 hr, camptothecin-treated mice
Description: At the 6 hr time point, the animals were euthanized with CO2, and tumor tissues were removed from a subset of animals. The tumor tissues were then fixed by incubating with 4% paraformaldehyde (PFA) overnight, followed by freezing for cryosectioning and immunohistochemical studies under a fluorescence microscope (Zeiss, Oberkochen, Germany). Apoptosis in the tumor tissues was assessed by […] terminal deoxynucleotidyl transferase-mediated dUTP nick-end labelling (TUNEL) staining in accordance with the manufacturer’s instructions (Chemicon Int., Temecula, CA, USA).  Fig 4 In vivo imaging of tumors after apoptosis induction. (A) Cy7.5-labelled PSP1peptide, control peptide, or annexin V was systematically injected into the tail vein of tumor-bearing nude mice treated with camptothecin 24 hrs before injection. The same amount of annexin V was also injected into non-camptothecin-treated tumor-bearing mice as a control. The homing of the peptides was examined after the indicated times using an optical imaging system. The white dotted circles indicate the tumors. (B) Histological examination of tumor tissues after homing of PSP1 and annexin V, performed under a fluorescence microscope. Tumor cell apoptosis was observed by TUNEL staining.

[5] = phage display; ref [17]; cited from earlier work
[6] = PS:PC (2:8) liposomes, PC response subtracted, Tris-HCl pH 8.0, 2 mM CaCl2, Scrubber, value from picture

Molecule: CC[C@@]1(O)C(=O)OCc2c1cc1n(c2=O)Cc2cc3ccccc3nc2-1 [camptothecin]
- in vivo apoptosis in tumors (TUNEL) (H460 tumors): increased area of in vivo apoptosis

Molecule: COc1cc([C@@H]2c3cc4c(cc3[C@@H](O[C@@H]3O[C@@H]5CO[C@@H](C)O[C@H]5[C@H](O)[C@H]3O)[C@H]3COC(=O)[C@H]23)OCO4)cc(OC)c1O [etoposide]
- effect of etoposide on H460 cells in words (H460 cells): without evidence of significant necrosis; also recorded: caused PS exposure; also recorded: did not significantly change the cell shape or number
- H460 cells undergoing apoptosis (H460 cells; 22 hrs, serum-free media, annexin V/PI FACS): more than 50%

Molecule: CLSAAPSYC [AA-PSP1, mutant PSP1 peptide with alanine instead of tyrosine, …]
- binding of PSP1 mutants to apoptotic H460 cells (FACS) (apoptotic H460 cells [1]): significantly diminished by replacement of tyrosine by alanine

Molecule: CLSFFPSYC [FF-PSP1, mutant PSP1 peptide with phenylalanine instead of tyrosine, …]
- binding of PSP1 mutants to apoptotic H460 cells (FACS) (apoptotic H460 cells [1]): bound to the apoptotic cells as much as PSP1
- binding to normal H460 cells (FACS) (normal H460 cells): nonspecific binding to the normal cells

- Kd (PS liposomes; PS liposomes, PC liposome response subtracted, Tris-HCl pH 8.0, 2 mM CaCl2, read-out: in vitro binding affinity (equilibrium binding constant, KD)): 10.7 µM
- association rate constant (Kon) (PS liposomes; [6]): 5.05±3.00×10^1 M^-1S^-1
- dissociation rate constant (Koff) (PS liposomes; [6]): 2.87±0.95×10^-4 S^-1
Molecule: CLSYYPSYC [PSP1, peptide-based phosphatidylserine (PS) indicator PSP1 (…)]
- PS binding kinetics in words (PS liposomes; PS liposomes, real-time association and dissociation): binds much more slowly to PS but, once bound, forms a more stable complex (slow dissociation) compared with annexin V; also recorded: dissociation of PSP1 was slow, even slower than that of annexin V
- binding to apoptotic H460 cells (FACS) (apoptotic H460 cells [1]; etoposide 50 μM 22 hrs, 2, 10, 20, 50 μg/ml, binding buffer 10 mM Hepes pH 7.4, 150 mM NaCl ± 2 mM CaCl2, 4°C, 1 hr): specifically bound to apoptotic H460 cells in a concentration-dependent manner; also recorded: specifically binds to apoptotic cells through PS exposed on the apoptotic cell surface
- apoptotic cell-specific signal (confocal microscopy) (apoptotic H460 cells [2]): apoptotic cell-specific signals were clearly detected; also recorded: targets apoptotic tumor cells more efficiently than annexin V does
- binding to untreated cancer cells (untreated cancer cells): a small degree of binding to untreated cancer cells
- duration of in vivo fluorescence signal in tumor region ([3]; Cy7.5-labeled, i.v. tail vein, camptothecin 10 mg/kg 24 hrs before, PSP1 10 μg/200 μl (23.16 μM), annexin V 100 μg/200 μl (14.3 μM)): more than 12 hrs
- in vivo tumor homing ([3]; Cy7.5-labeled): generated apoptosis/tumor-specific signals after cancer treatment in the animal model; also recorded: appeared higher than those of annexin V for the entire measurement period; also recorded: rapidly observed in the tumor region; also recorded: specifically homed to apoptotic cells in tumors after cancer therapy; also recorded: specifically targeted apoptotic cells in tumors following systemic administration
- tumor-homing fluorescence signal in tumor cryosections [4]: significantly more prominent than that of annexin V
- interaction with PS on apoptotic cells [5]: specific interaction with PS on apoptotic cells

Molecule: NSSSVDK (also: FITC label, position not given here) [control peptide, control peptide (NSSSVDK), reference compound]
- non-specific fluorescence in surrounding non-tumor tissues ([3]; Cy7.5-labeled control peptide 100 μg/200 μl i.v., camptothecin-treated tumor-bearing mice): surrounding non-tumor tissues absorbed fluorescence at the early time points, this non-specific signal vanished over time
- in vivo tumor homing ([3]; Cy7.5-labeled): did not show specific tumor-homing signals
- tumor-homing fluorescence signal in tumor cryosections [4]: No signals were observed in tumor tissues

From publication PMC4372538, “Advantages of the Phosphatidylserine-Recognizing Peptide PSP1 for Molecular Imaging of Tumor Apoptosis Compared with Annexin V” (PLoS ONE, 2015)
